Reference: PubChem BioAssay (NCI)
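Protocol summary: plate cells (96-well), add compound at 5 concentrations, incubate 48 h, interpolate endpoints linearly. TGI denotes the concentration required for complete inhibition of growth.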

Assays:
Test in all cases: DTP human tumour cell line panel, 48 h
U251 CNS = tested on: U251 CNS
NCI-H522 lung = tested on: NCI-H522 lung
OVCAR-3 ovarian = tested on: OVCAR-3 ovarian
SNB-75 CNS = tested on: SNB-75 CNS
HCT-116 colon = tested on: HCT-116 colon
ACHN renal = tested on: ACHN renal
SNB-19 CNS = tested on: SNB-19 CNS
NCI-H226 lung = tested on: NCI-H226 lung
KM12 colon = tested on: KM12 colon
HOP-62 NSCLC = tested on: HOP-62 NSCLC
UO-31 renal = tested on: UO-31 renal
OVCAR-5 ovarian = tested on: OVCAR-5 ovarian
MDA-N = tested on: MDA-N
M14 melanoma = tested on: M14 melanoma
CAKI-1 renal = tested on: CAKI-1 renal
SN12C renal = tested on: SN12C renal
RPMI-8226 leukemia = tested on: RPMI-8226 leukemia
SF-268 CNS = tested on: SF-268 CNS
NCI-H23 lung = tested on: NCI-H23 lung
SK-OV-3 ovarian = tested on: SK-OV-3 ovarian
NCI-H460 lung = tested on: NCI-H460 lung
SF-295 CNS = tested on: SF-295 CNS
BT-549 breast = tested on: BT-549 breast
COLO 205 colon = tested on: COLO 205 colon
A498 renal = tested on: A498 renal
UACC-62 melanoma = tested on: UACC-62 melanoma
HCT-15 colon = tested on: HCT-15 colon
TK-10 renal = tested on: TK-10 renal
T-47D breast = tested on: T-47D breast
OVCAR-8 ovarian = tested on: OVCAR-8 ovarian
IGROV1 ovarian = tested on: IGROV1 ovarian
MCF7 breast = tested on: MCF7 breast
786-0 renal = tested on: 786-0 renal
SK-MEL-5 melanoma = tested on: SK-MEL-5 melanoma
HT29 colon = tested on: HT29 colon
EKVX NSCLC = tested on: EKVX NSCLC
HOP-92 NSCLC = tested on: HOP-92 NSCLC
SW-620 colon = tested on: SW-620 colon
HCC-2998 colon = tested on: HCC-2998 colon
DU-145 prostate = tested on: DU-145 prostate
HL-60(TB) leukemia = tested on: HL-60(TB) leukemia
MALME-3M melanoma = tested on: MALME-3M melanoma
SK-MEL-2 melanoma = tested on: SK-MEL-2 melanoma
MOLT-4 leukemia = tested on: MOLT-4 leukemia
PC-3 prostate = tested on: PC-3 prostate
LOX IMVI melanoma = tested on: LOX IMVI melanoma
CCRF-CEM leukemia = tested on: CCRF-CEM leukemia
MDA-MB-435 = tested on: MDA-MB-435
RXF 393 renal = tested on: RXF 393 renal
SF-539 CNS = tested on: SF-539 CNS
HS 578T breast = tested on: HS 578T breast
OVCAR-4 ovarian = tested on: OVCAR-4 ovarian
MDA-MB-231 breast = tested on: MDA-MB-231 breast
UACC-257 melanoma = tested on: UACC-257 melanoma
K-562 leukemia = tested on: K-562 leukemia
A549 NSCLC = tested on: A549 NSCLC
NCI/ADR-RES ovarian = tested on: NCI/ADR-RES ovarian
SK-MEL-28 melanoma = tested on: SK-MEL-28 melanoma

Measured: TGI

c1ccc2c(c1)Oc1cccc3cccc-2c13
> 100 µM: U251 CNS | NCI-H522 lung | OVCAR-3 ovarian | SNB-75 CNS | HCT-116 colon | ACHN renal | SNB-19 CNS | NCI-H226 lung | KM12 colon | HOP-62 NSCLC | UO-31 renal | OVCAR-5 ovarian | MDA-N | M14 melanoma | CAKI-1 renal | SN12C renal | RPMI-8226 leukemia | SF-268 CNS | NCI-H23 lung | SK-OV-3 ovarian | NCI-H460 lung | SF-295 CNS | BT-549 breast | COLO 205 colon | A498 renal | UACC-62 melanoma | HCT-15 colon | TK-10 renal | T-47D breast | OVCAR-8 ovarian | IGROV1 ovarian | MCF7 breast | 786-0 renal | SK-MEL-5 melanoma | HT29 colon | EKVX NSCLC | HOP-92 NSCLC | SW-620 colon | HCC-2998 colon | DU-145 prostate | HL-60(TB) leukemia | MALME-3M melanoma | SK-MEL-2 melanoma | MOLT-4 leukemia | PC-3 prostate | LOX IMVI melanoma | CCRF-CEM leukemia | MDA-MB-435 | RXF 393 renal | SF-539 CNS | HS 578T breast | OVCAR-4 ovarian | MDA-MB-231 breast | UACC-257 melanoma | K-562 leukemia | A549 NSCLC | NCI/ADR-RES ovarian | SK-MEL-28 melanoma
